{"source": "patent US20250199015A1", "about": "“CYCLIN-DEPENDENT KINASE 2 INHIBITORS FOR MEDICAL TREATMENT” (INCYCLIX BIO, LLC, priority 2022, published 2025)", "key": {"pRb T821 in COV318 cells": {"tested_on": "pRb T821 in COV318 cells", "assay": "Western blot pRb", "assay_type": "cell-based, human", "conditions": "30-1000 nM, 24 hours", "description": "Cells were plated at 300,000 cells/well in Corning 6 cm tissue culture treated plates. […] Cells were collected by washing each well twice with cold PBS, then scraping cells in the presence of 75 μL cold RIPA with protease and phosphatase inhibitors. Lysates were clarified by centrifugation at 12,000×g for 15 min at 4° C. and supernatants transferred to clean tubes. A BCA assay was performed to determine the protein concentration of each lysate. […] Protein was transferred to a nitrocellulose membrane and blocked with LI-COR blocking buffer for 1 hour. Membranes were incubated overnight in primary antibody at 4° C. Following 3 washes with TBS-T, membranes were incubated for 60 minutes in LI-COR secondary antibodies. Following 3 washes in TBS-T, and one TBS wash, membranes were scanned using a LI-COR OdysseyCLx. Image studio was used for image analysis."}, "[1]": {"tested_on": "MCF7PDRC15-1 palbociclib resistant breast cancer cells", "assay": "CellTiter-Glo viability, palbociclib-resistant MCF7", "assay_type": "cell-based", "conditions": "Homo sapiens", "description": "Plates were removed from incubator on day six and treated with CellTiter-Glo (Promega, Inc) following manufacturer's specifications. Plates were then read on Biotek luminometer with 1 sec/well integration. Results were converted to Microsoft Excel and transferred to Graphpad Prism for analysis.\n(§1) The Palbo-R MCF7PDRCL5-1 cells were grown in EMEM, glutamax, 10% FBS, 1×ITS. […] Plates were removed from incubator on day six and treated with CellTiter-Glo (Promega, Inc) following manufacturer's specifications. Plates were then read on Biotek luminometer with 1 sec/well integration. Results were converted to Microsoft Excel and transferred to Graphpad Prism for analysis.\nas §1, with “In a similar manner,” for “The”, “Glutamax,” for “glutamax,”"}, "[2]": {"tested_on": "T47D human breast carcinoma cells", "assay": "Crystal violet colony assay", "assay_type": "cell-based", "description": "(§2) The T47D human breast carcinoma cell line was grown in RPMI-1640/1× Glutamax/1× Insulin/10% fetal bovine serum and was plated at 10,000 cells/well in Corning 6-well tissue culture treated plates. Cells were incubated at 37° C. for 24 hours prior to addition of treatment. […] Plates were collected at week 2 and 3, at week 3, 2 plates with only palbociclib were switched to combination treatment. The remaining plates were collected at weeks 5 and 8. Collection was performed by washing wells with PBS before incubating 5 minutes with 0.1% crystal violet/20% methanol. Dye was removed and wells washed 4 times with PBS before being scanned at 1200 dpi. Image J was used to count the % area and colony size for each well (FIG. 8F-I). GraphPad Prism was used for analysis. Cells treated with DMSO control retained large colonies that inhabited the majority of the well surface area from week 3 beyond (FIG. 8F).\nas §2, with “6 well tissue culture treated plates. The BT474 human breast carcinoma cell line was grown in DMEM/1× Glutamax/1× Insulin/10% fetal bovine serum and was plated at 25,000 cells/well in Corning 6 well” for “6-well”, “CDK4/6i” for “palbociclib”, “well. Graph pad” for “well (FIG. 8F-I). GraphPad Prism”, “analysis.” for “analysis. Cells treated with DMSO control retained large colonies that inhabited the majority of the well surface area from week 3 beyond (FIG. 8F).”\nThe T47D human breast carcinoma cell line was grown in RPMI-1640/1× Glutamax/1× Insulin/10% fetal bovine serum and was plated at 10,000 cells/well in Corning 6 well tissue culture treated plates. Cells were incubated at 37° C. for 24 hours prior to addition of treatment. […] Plates were collected at weeks 2 and 3. Collection was performed by washing wells with PBS before incubating 5 minutes with 0.1% crystal violet/20% methanol. Dye was removed and wells washed 4 times with PBS before being scanned at 1200 dpi. Image J was used to count the percent area and colony size for each well and Graph pad was used for analysis."}, "hERG current": {"target": "T1, hERG current (Homo sapiens, UniProt Q12809)", "T1 construct": "expressed in transfected cells; host or cells: HEK293 (stably transfected)", "T1 sequence (Q12809 whole entry)": "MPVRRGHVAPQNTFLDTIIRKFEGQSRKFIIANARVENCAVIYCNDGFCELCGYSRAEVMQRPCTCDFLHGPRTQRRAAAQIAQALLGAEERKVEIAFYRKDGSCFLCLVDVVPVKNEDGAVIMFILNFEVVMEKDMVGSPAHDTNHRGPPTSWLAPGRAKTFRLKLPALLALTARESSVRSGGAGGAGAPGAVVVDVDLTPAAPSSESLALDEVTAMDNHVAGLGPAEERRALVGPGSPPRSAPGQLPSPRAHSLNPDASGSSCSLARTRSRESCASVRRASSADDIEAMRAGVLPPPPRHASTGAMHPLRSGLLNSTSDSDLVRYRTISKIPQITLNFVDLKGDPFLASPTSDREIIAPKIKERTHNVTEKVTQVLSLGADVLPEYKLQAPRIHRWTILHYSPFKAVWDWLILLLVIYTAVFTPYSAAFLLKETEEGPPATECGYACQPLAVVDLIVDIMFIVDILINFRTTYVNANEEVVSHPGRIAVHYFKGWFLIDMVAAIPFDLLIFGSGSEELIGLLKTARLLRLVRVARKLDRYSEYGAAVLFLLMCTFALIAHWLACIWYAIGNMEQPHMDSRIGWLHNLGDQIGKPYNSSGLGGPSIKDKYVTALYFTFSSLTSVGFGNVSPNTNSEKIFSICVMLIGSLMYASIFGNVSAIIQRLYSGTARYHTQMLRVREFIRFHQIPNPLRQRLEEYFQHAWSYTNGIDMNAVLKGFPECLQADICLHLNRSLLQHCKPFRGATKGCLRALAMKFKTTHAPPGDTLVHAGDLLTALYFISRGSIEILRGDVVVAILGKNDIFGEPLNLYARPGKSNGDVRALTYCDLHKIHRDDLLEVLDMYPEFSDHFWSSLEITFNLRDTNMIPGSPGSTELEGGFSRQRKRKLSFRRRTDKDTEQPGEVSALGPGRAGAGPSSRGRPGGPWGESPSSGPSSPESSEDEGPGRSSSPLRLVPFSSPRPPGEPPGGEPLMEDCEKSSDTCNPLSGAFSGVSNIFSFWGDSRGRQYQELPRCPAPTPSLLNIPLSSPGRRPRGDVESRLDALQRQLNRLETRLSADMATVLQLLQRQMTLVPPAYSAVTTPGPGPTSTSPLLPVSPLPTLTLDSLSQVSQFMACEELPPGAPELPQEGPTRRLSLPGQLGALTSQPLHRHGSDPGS", "assay": "hERG whole-cell patch clamp in HEK293 cells", "assay_type": "cell-based", "conditions": "37±1° C.; read-out: hERG current amplitude IC50", "description": "Experiments were performed at 37±1° C. Currents were measured using the whole-cell patch clamp method. Glass pipettes were pulled from borosilicate glass by a horizontal puller (Sutter Instruments, USA). Bath temperature was measured by a thermistor placed near the cell under study and were maintained by a thermoelectric device. An Axopatch 1-D amplifier of voltage clamp pulses and data acquisition was controlled by a computer running pClamp software (v10.7). The voltage protocol comprised: −80 mV for 100 ms, +40 mV for 500 ms, a −60 ms decreased slope of 1.2 V/see, then −80 mV for 3 s. Current was measured as outward current during ramp, with a pacing rate of 0.2 Hz (every 5 s), filtered at 2 kHz and digitized at 5 kHz. This protocol was repeated every 5 s until hERG tail current maintains stability, defined as approximately <10% change in current amplitude for at least 6 consecutive traces. Then the Compound I was applied as the protocol continues. Current was measured as the peak current during the ramp. […] Values were derived using the average of 3 current traces."}, "[3]": {"assay": "Functional observational battery in 28-day repeat-dose toxicity study", "assay_type": "in vivo, rats", "conditions": "any dose level", "description": "Safety pharmacology studies described more fully below included a functional observational battery (FOB) testing in a 28-day repeat-dose toxicity study in rats, electrocardiogram (ECG) evaluations in a 28-day repeat-dose toxicity study in dogs, and a single-dose respiratory safety pharmacology study in rats."}, "[4]": {"assay": "Nonclinical pharmacokinetics (IV and PO)", "conditions": "in vivo", "description": "Nonclinical PK studies were conducted for single dose of Compound I in rats, mice, and dogs, and for repeated doses of Compound I in rats and dogs. […] The relationship between dose level and systemic exposure was generally similar in male and female animals."}}, "note": "Like-named read-outs stand apart in the source and are kept apart here.", "data": [{"compound": "NS(=O)(=O)c1ccc(Nc2ncc3cc4n(c3n2)C2(CCCCC2)C(=O)NN4)cc1", "note": "[Compound I]", "values": [{"measurement": "pRb levels", "setting": "pRb T821 in COV318 cells", "value": "dose-dependent decrease in pRb levels"}, {"measurement": "IC50", "setting": "[1]; MCF7, read-out: Cell Viability IC50, Compound I alone, absence of palbociclib", "value": 995, "unit": "nM"}, {"measurement": "IC50", "setting": "[1]; MCF7, read-out: Cell Viability IC50, in the presence of 1 μM palbociclib", "value": 17, "unit": "nM"}, {"measurement": "growth with combination of fulvestrant and Compound I", "setting": "[2]; 100 nM Compound I + 1 nM Fulvestrant, weeks 2 and 3", "value": "reduced growth of cells"}, {"measurement": "growth with both Compound I and a CDK4/6i", "setting": "[2]; 300 nM each, 8 weeks", "value": "no noticeable growth after 8 weeks"}, {"measurement": "time to CDK4/6i resistance", "setting": "[2]; 300 nM with palbociclib or abemaciclib, up to 8 weeks", "value": "prolonged the time to CDK4/6i resistance"}, {"measurement": "colony size and percent plate area", "setting": "[2]; 300 nM, weeks 2-8", "value": "substantially reduced colony size"}, {"measurement": "IC50", "setting": "hERG current", "value": 8600, "unit": "nM"}, {"measurement": "FOB results", "setting": "[3]", "value": "did not affect"}, {"measurement": "half-life", "setting": "[4]; dog, dogs", "value": "≤ 360", "unit": "min"}, {"measurement": "Tmax", "setting": "[4]; dog, iv, dogs, read-out: Tmax after IV dosing", "value": "≤ 15", "unit": "min"}, {"measurement": "Tmax", "setting": "[4]; dog, po, dogs, read-out: Tmax after PO dosing", "value": "72 to 102", "unit": "min"}, {"measurement": "Tmax", "setting": "[4]; mouse, iv, mice, read-out: Tmax after IV dosing", "value": "≤ 15", "unit": "min"}, {"measurement": "Tmax", "setting": "[4]; mouse, po, mice, read-out: Tmax after PO dosing", "value": "15 to 240", "unit": "min"}, {"measurement": "Tmax", "setting": "[4]; rat, iv, rats, read-out: Tmax after IV dosing", "value": "≤ 15", "unit": "min"}, {"measurement": "Tmax", "setting": "[4]; rat, po, rats, read-out: Tmax after PO dosing", "value": "15 to 30", "unit": "min"}]}]}
